The structures appear in SMILES notation. Entries after “also recorded” stand apart in the source; their conditions may differ.

Assay [1] deals with influenza virus (x31). The assay is classed as in vivo, mice.
The test system of assay [2] is non-neurotropic, non-lethal influenza virus (x31 strain). Format: in vivo, mice. Particulars: accelerating rod, three consecutive runs.

As to `Nc1ccncc1` [4-AP, 4-aminopyridine], the “mice surviving until at least Day 14 (survivors/treated)” value in assay [1] ([…], 4-AP 1.5 mg/kg, corticosteroid 1 mg/kg, N=7/group) is 7/7. Besides, in assay [1] (mouse, in vivo), the “influenza-induced weight loss (in words)” value is on record as “lesser weight loss; also recorded: attenuated” and the “survival of infected ATM KO mice (in words)” value is “complete rescue from death”. In addition, in assay [2], the “animals showing a decreased time to fall on the rotarod” value came out at 27%.

(Values after US20260216154A1, “POTASSIUM CHANNEL BLOCKERS OR DERIVATIVES THEREOF FOR PREVENTING, ALLEVIATING, AND/OR TREATING MORBIDITY AND MORTALITY INDUCED BY PATHOGENS OR OTHER INDUCERS OF IMMUNE […]/OR EXCESS IMMUNE ACTIVATI” (University of Rochester, priority 2023, published 2026).)
